# Laboratory results: BigSolDB 2.1
smiles,measurement,setting,value
COC(=O)[C@@H](N)Cc1c[nH]c2ccccc12.Cl,solubility (mole fraction),"in 2-butanone, 283.2 K",0.000254
same,solubility (mole fraction),"in 2-butanone, 288.2 K",0.000295
same,solubility (mole fraction),"in 2-butanone, 293.2 K",0.00034
same,solubility (mole fraction),"in 2-butanone, 298.2 K",0.000401
same,solubility (mole fraction),"in 2-butanone, 303.2 K",0.000495
same,solubility (mole fraction),"in 2-butanone, 308.2 K",0.00058
same,solubility (mole fraction),"in 2-butanone, 313.2 K",0.000748
same,solubility (mole fraction),"in 2-butanone, 318.2 K",0.001
same,solubility (mole fraction),"in 2-butanone, 323.2 K",0.00141
same,solubility (mole fraction),"in acetone, 283.2 K",0.000289
same,solubility (mole fraction),"in acetone, 288.2 K",0.000374
same,solubility (mole fraction),"in acetone, 293.2 K",0.000489
same,solubility (mole fraction),"in acetone, 298.2 K",0.000605
same,solubility (mole fraction),"in acetone, 303.2 K",0.000793
same,solubility (mole fraction),"in acetone, 308.2 K",0.00104
same,solubility (mole fraction),"in acetone, 313.2 K",0.00144
same,solubility (mole fraction),"in acetone, 318.2 K",0.00219
same,solubility (mole fraction),"in acetone, 323.2 K",0.00343
same,solubility (mole fraction),"in acetonitrile, 283.2 K",3.75e-05
same,solubility (mole fraction),"in acetonitrile, 288.2 K",4.38e-05
same,solubility (mole fraction),"in acetonitrile, 293.2 K",5.24e-05
same,solubility (mole fraction),"in acetonitrile, 298.2 K",6.55e-05
same,solubility (mole fraction),"in acetonitrile, 303.2 K",8.15e-05
same,solubility (mole fraction),"in acetonitrile, 308.2 K",0.000101
same,solubility (mole fraction),"in acetonitrile, 313.2 K",0.000123
same,solubility (mole fraction),"in acetonitrile, 318.2 K",0.000147
same,solubility (mole fraction),"in acetonitrile, 323.2 K",0.000183
same,solubility (mole fraction),"in ethanol, 283.2 K",0.00608
same,solubility (mole fraction),"in ethanol, 288.2 K",0.00634
same,solubility (mole fraction),"in ethanol, 293.2 K",0.00683
same,solubility (mole fraction),"in ethanol, 298.2 K",0.00737
same,solubility (mole fraction),"in ethanol, 303.2 K",0.00812
same,solubility (mole fraction),"in ethanol, 308.2 K",0.00885
same,solubility (mole fraction),"in ethanol, 313.2 K",0.00966
same,solubility (mole fraction),"in ethanol, 318.2 K",0.0108
same,solubility (mole fraction),"in ethanol, 323.2 K",0.012
same,solubility (mole fraction),"in ethyl acetate, 283.2 K",4.01e-05
same,solubility (mole fraction),"in ethyl acetate, 288.2 K",4.86e-05
same,solubility (mole fraction),"in ethyl acetate, 293.2 K",5.9e-05
same,solubility (mole fraction),"in ethyl acetate, 298.2 K",7.36e-05
same,solubility (mole fraction),"in ethyl acetate, 303.2 K",0.000101
same,solubility (mole fraction),"in ethyl acetate, 308.2 K",0.000134
same,solubility (mole fraction),"in ethyl acetate, 313.2 K",0.000174
same,solubility (mole fraction),"in ethyl acetate, 318.2 K",0.000226
same,solubility (mole fraction),"in ethyl acetate, 323.2 K",0.000296
same,solubility (mole fraction),"in isobutanol, 283.2 K",0.00135
same,solubility (mole fraction),"in isobutanol, 288.2 K",0.00142
same,solubility (mole fraction),"in isobutanol, 293.2 K",0.0015
same,solubility (mole fraction),"in isobutanol, 298.2 K",0.00172
same,solubility (mole fraction),"in isobutanol, 303.2 K",0.00205
same,solubility (mole fraction),"in isobutanol, 308.2 K",0.00245
same,solubility (mole fraction),"in isobutanol, 313.2 K",0.00281
same,solubility (mole fraction),"in isobutanol, 318.2 K",0.00326
same,solubility (mole fraction),"in isobutanol, 323.2 K",0.00374
same,solubility (mole fraction),"in isopropanol, 283.2 K",0.00109
same,solubility (mole fraction),"in isopropanol, 288.2 K",0.00122
same,solubility (mole fraction),"in isopropanol, 293.2 K",0.00135
same,solubility (mole fraction),"in isopropanol, 298.2 K",0.00157
same,solubility (mole fraction),"in isopropanol, 303.2 K",0.00176
same,solubility (mole fraction),"in isopropanol, 308.2 K",0.00195
same,solubility (mole fraction),"in isopropanol, 313.2 K",0.0022
same,solubility (mole fraction),"in isopropanol, 318.2 K",0.00241
same,solubility (mole fraction),"in isopropanol, 323.2 K",0.00273
same,solubility (mole fraction),"in methanol, 283.2 K",0.0291
same,solubility (mole fraction),"in methanol, 288.2 K",0.0301
same,solubility (mole fraction),"in methanol, 293.2 K",0.0317
same,solubility (mole fraction),"in methanol, 298.2 K",0.0334
same,solubility (mole fraction),"in methanol, 303.2 K",0.0354
same,solubility (mole fraction),"in methanol, 308.2 K",0.0379
same,solubility (mole fraction),"in methanol, 313.2 K",0.0403
same,solubility (mole fraction),"in methanol, 318.2 K",0.0437
same,solubility (mole fraction),"in methanol, 323.2 K",0.0478
same,solubility (mole fraction),"in n-butanol, 283.2 K",0.00221
same,solubility (mole fraction),"in n-butanol, 288.2 K",0.00231
same,solubility (mole fraction),"in n-butanol, 293.2 K",0.00247
same,solubility (mole fraction),"in n-butanol, 298.2 K",0.00263
same,solubility (mole fraction),"in n-butanol, 303.2 K",0.00281
same,solubility (mole fraction),"in n-butanol, 308.2 K",0.00304
same,solubility (mole fraction),"in n-butanol, 313.2 K",0.00327
same,solubility (mole fraction),"in n-butanol, 318.2 K",0.0035
same,solubility (mole fraction),"in n-butanol, 323.2 K",0.00385
same,solubility (mole fraction),"in n-propanol, 283.2 K",0.00303
same,solubility (mole fraction),"in n-propanol, 288.2 K",0.00322
same,solubility (mole fraction),"in n-propanol, 293.2 K",0.00348
same,solubility (mole fraction),"in n-propanol, 298.2 K",0.00376
same,solubility (mole fraction),"in n-propanol, 303.2 K",0.00401
same,solubility (mole fraction),"in n-propanol, 308.2 K",0.00431
same,solubility (mole fraction),"in n-propanol, 313.2 K",0.00465
same,solubility (mole fraction),"in n-propanol, 318.2 K",0.00512
same,solubility (mole fraction),"in n-propanol, 323.2 K",0.00574
same,solubility (mole fraction),"in sec-butanol, 283.2 K",0.0013
same,solubility (mole fraction),"in sec-butanol, 288.2 K",0.00135
same,solubility (mole fraction),"in sec-butanol, 293.2 K",0.00149
same,solubility (mole fraction),"in sec-butanol, 298.2 K",0.00165
same,solubility (mole fraction),"in sec-butanol, 303.2 K",0.00183
same,solubility (mole fraction),"in sec-butanol, 308.2 K",0.00206
same,solubility (mole fraction),"in sec-butanol, 313.2 K",0.00227
same,solubility (mole fraction),"in sec-butanol, 318.2 K",0.00251
same,solubility (mole fraction),"in sec-butanol, 323.2 K",0.00296
same,solubility (mole fraction),"in water, 283.2 K",0.00839
same,solubility (mole fraction),"in water, 288.2 K",0.00951
same,solubility (mole fraction),"in water, 293.2 K",0.0107
same,solubility (mole fraction),"in water, 298.2 K",0.0125
same,solubility (mole fraction),"in water, 303.2 K",0.015
same,solubility (mole fraction),"in water, 308.2 K",0.0175
same,solubility (mole fraction),"in water, 313.2 K",0.02
same,solubility (mole fraction),"in water, 318.2 K",0.024
same,solubility (mole fraction),"in water, 323.2 K",0.0278
